Experimental data: patent US12703731B2, “Long-acting GLP-1 compound” (Gan & Lee Pharmaceuticals Co., Ltd., priority 2019, dated 2026)

Legend:
[1] = test system: Kkay mice; assay: Long-term pharmacodynamic study on Kkay mice (Example 17); assay type: in vivo; conditions: s.c. 100 and 300 μg/kg; dulaglutide 600 μg/kg; FIGS. 9a-9b
Method: Before the start of the experiment on the day, the mice were evaluated for baseline blood glucose at about 9:00 a.m. and weighed. […] The vehicle contained 14 mg/mL propylene glycol, 5.5 mg/mL phenol and 1.133 mg/mL disodium hydrogen phosphate, with a pH value of 7.4.
(time 0) at back of the neck once every 2 days for 16 consecutive times, the blood glucose of the mice was evaluated 3 h, 6 h, 1 day and 2 days after the first administration, and HbA1c was detected in an EDTA anticoagulation tube 48 h after the last administration.

[2] = test system: db/db mice; assay: Single-dose study of blood glucose, food and water intake on db/db mice (Example 15); assay type: in vivo; conditions: single s.c. 100 μg/kg
Method: (§1) Male db/db (BKS/Lepr) mice aged 8-9 weeks were housed in appropriately sized feeding cages in a barrier environment and had free access to standard food and purified water, with environmental conditions controlled at 40%-60% RH and 22-24° C. After an adaptation period of 1-2 weeks, the mice were used in the experiment.
Before the start of the experiment on the day, the mice were evaluated for baseline blood glucose at about 9:00 a.m. and weighed.
The GLP-1 derivatives were dissolved in the vehicle to an administration concentration of 20 μg/mL, and the administration was performed once by subcutaneous injection (s.c., 50 μL/10 g body weight) at back of the neck. The compound of Example 2 was administered at about 10:00 a.m. (time 0), and the blood glucose of the mice was evaluated 1 h, 2 h, 3 h, 6 h, 12 h, 24 h, 48 h and 72 h after the administration. The tail of each mouse was cleaned with an alcohol cotton ball, and blood drops were collected from the tail using a disposable blood collection needle and measured with a glucometer (Roche) and accompanying testing strips. Meanwhile, the food intake and water intake of the mice were monitored every day.
The dose-response curve of blood glucose versus time, the dose-response curve of food intake versus time, and the dose-response curve of water intake versus time were plotted for each single dose of GLP-1 derivative. […]

[3] = test system: db/db mice; assay: Single-dose pharmacodynamic study on db/db mice (Example 5); assay type: in vivo; conditions: single s.c. 100 μg/kg
Method: The title compounds of Examples 1-4 and Comparative Examples 1-4 (also known as GLP-1 derivatives) were tested in a single dose study on an obese mouse model (db/db mice) with type 2 diabetes (T2DM). The hypoglycemic drug effect of the GLP-1 derivatives was tested at a dose of 100 μg/kg.
as §1, with “relative humidity (RH)” for “RH”
Before the start of the experiment on the day, the mice were evaluated for baseline blood glucose at about 9:30 a.m. and weighed. […]
The GLP-1 derivatives were dissolved in the vehicle to an administration concentration of 20 μg/mL, and the administration volume was 5 mL/kg (i.e., 50 μL/10 g body weight). […] The tail of each mouse was cleaned with an alcohol cotton ball, and blood drops were collected from the tail using a disposable blood collection needle and measured with a glucometer and accompanying testing strips (Roche). Food intake and body weight of each mouse were measured at 24 h, 48 h and 72 h after the administration. […]

[4] = biological target: T1, human GLP-1 receptor (Homo sapiens, UniProt P43220); assay: GLP-1 receptor binding, displacement of 125I-GLP-1, low and high HSA; conditions: 2% HSA versus 0.005% HSA
T1 construct: host or cells: cell membrane preparation
T1 sequence (P43220 24-463): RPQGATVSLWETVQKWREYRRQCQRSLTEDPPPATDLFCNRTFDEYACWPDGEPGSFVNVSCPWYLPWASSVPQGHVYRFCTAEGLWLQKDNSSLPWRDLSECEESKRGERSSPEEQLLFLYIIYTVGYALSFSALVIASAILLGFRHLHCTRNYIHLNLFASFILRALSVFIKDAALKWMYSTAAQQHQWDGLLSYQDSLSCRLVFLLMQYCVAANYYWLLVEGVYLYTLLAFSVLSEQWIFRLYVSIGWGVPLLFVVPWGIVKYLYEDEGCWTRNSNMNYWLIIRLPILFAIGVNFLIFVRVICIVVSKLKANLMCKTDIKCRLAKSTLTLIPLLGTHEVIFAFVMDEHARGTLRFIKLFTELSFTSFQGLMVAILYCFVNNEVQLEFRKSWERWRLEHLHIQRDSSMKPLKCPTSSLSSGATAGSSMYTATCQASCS
Method: For a receptor binding test in the presence of low-concentration HSA (0.005% (w/v)), 50 μL of assay buffer was added to each well of the assay plate. For a receptor binding test in the presence of high-concentration HSA (2% (w/v)), 50 μL of 8% (w/v) albumin stock solution was added to each well of the assay plate. […] In the presence of 0.005% HSA, all test compounds and the reference control were diluted to 2 μM with assay buffer, and then all samples were diluted in 4-fold serial gradient dilutions for a total of 10 concentration gradients. […] 25 μL of test compounds or reference control at different concentrations were added to the appropriate wells of the assay plate, respectively. Cell membrane protein aliquots were thawed and diluted to their working concentration (40 μg/mL), and 50 μL of the cell membrane-containing solution was added to each well of the assay plate. […] The assay plate was incubated at room temperature for 1 h. After the incubation, the reaction solution was collected on a GF/C filter plate using a cell collector, washed 6 times with a washing buffer, and dried in a drying oven at 50° C. for 1 h. 50 μL of scintillation solution was added and blocked, and the values were read using Microbeta2. IC50 values were calculated by the nonlinear regression analysis in the GraphPad Prism software and reported in nM. […]

Row | Substance | hypoglycemic effect on Kkay mice compared to dulaglutide [1] | control of food intake and water intake compared to semaglutide ([2]; db/db mice, FIGS. 7c-7d) | hypoglycemic effect on db/db mice compared to semaglutide ([2]; same dose, FIGS. 7a-7b) | effective duration of action of hypoglycemic effect on db/db mice compared to semaglutide [3] | hypoglycemic effect on db/db mice compared to semaglutide ([3]; FIGS. 2a-2b) | Ratio [(IC50/nM) high-concentration HSA]/[(IC50/nM) low-concentration HSA] [4]
1 | N-ε^26-[2-(2-[2-(4-[19-carboxynonadecanoylamino]-4(S)-carboxybutanoylamino)ethoxy]ethoxy)acetyl][Gly8, Arg34]GLP-1-(7-37) Peptide [Compound 2] | significantly superior hypoglycemic effect on Kkay mice to dulaglutide | its effect is superior to semaglutide | superior hypoglycemic effect | longer than that of semaglutide | superior hypoglycemic effect to semaglutide | 
2 | semaglutide |  |  |  |  |  | 813
